Some test systems named below: HOP-62; M14; MCF7; HL-60; LOX IMVI; Malme-3M; 786-0; SF-539; MDA-MB-231; NCI-H522; SK-MEL-5; RPMI-8226; CCRF-CEM; SF-295; MDA-MB-435; SK-MEL-2; IGROV-1; HCT-15; UACC-257; OVCAR-3.
Holding throughout (assay): NCI anticancer screen, dose series, 48 h

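Each compound was tested at five concentrations against cells in 96-well plates for 48 hours. At the GI50, growth is halved.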 Active and inactive are the calls of the source. Rule as the data show it: active = GI50 up to about 1.1 µM and inactive = higher.

Consider `Cc1ccnc2nc(-c3cccc4ccccc34)cc(O)c12`, for which the GI50 was 0.537 µM (active) in the assay with HOP-62; 0.00938 µM (active) with M14; 0.0304 µM (active) in the assay on MCF7; 0.000487 µM (active) in the assay with HL-60; 0.00713 µM (active) in the assay with LOX IMVI; 0.000708 µM (active) in the assay with Malme-3M. Further, the GI50 with 786-0 was 0.011 µM (active); in the assay with SF-539, 0.0112 µM (active); in the assay on MDA-MB-231, 0.149 µM (active); in the assay with NCI-H522 it was 0.00106 µM (active); in the assay on SK-MEL-5, 0.000991 µM (active); in the assay on RPMI-8226, 0.00682 µM (active). Moreover, the GI50 with CCRF-CEM is 0.00527 µM (active); in the assay on SF-295 it was 0.0132 µM (active); with MDA-MB-435, 0.0001 µM (active); in the assay on SK-MEL-2 it was 0.000458 µM (active); in the assay with IGROV-1, 0.043 µM (active); in the assay with HCT-15, 0.00434 µM. In addition, the GI50 is 23.1 µM (inactive) in the assay on UACC-257 and 0.00258 µM (active) with OVCAR-3.

In the case of `NS(=O)(=O)c1ccc(NC(=O)N/N=C/c2ccccc2O)cc1`, the GI50 in the assay on HOP-62 is 50.7 µM (inactive); in the assay on M14 it was 36.8 µM (inactive); with MCF7, 58.2 µM (inactive); in the assay with HL-60, 27.2 µM (inactive); in the assay with LOX IMVI it was 47.4 µM (inactive); with Malme-3M, 74.3 µM (inactive). The GI50 with 786-0 was 73.8 µM (inactive); with SF-539 it was 41.9 µM (inactive); in the assay on MDA-MB-231, > 100 µM (inactive); with NCI-H522 it was 22.4 µM (inactive); in the assay with SK-MEL-5, 46.3 µM (inactive); in the assay with RPMI-8226, > 100 µM (inactive). Also, the GI50 in the assay with CCRF-CEM is 36.1 µM (inactive); in the assay with SF-295 it was 67.8 µM (inactive); with MDA-MB-435, 16.4 µM (inactive); with SK-MEL-2, 42 µM (inactive); with IGROV-1, 58.7 µM (inactive); in the assay on HCT-15 it was 48 µM. The GI50 with UACC-257 is 58.6 µM (inactive); in the assay on OVCAR-3, 42 µM (inactive).

Take `CCOC(=O)c1nc2ccccc2nc1Oc1cc(OC)c(OC)c(OC)c1`: the GI50 in the assay with HOP-62 was 31.4 µM (inactive); in the assay with M14 it was > 100 µM (inactive); in the assay with MCF7, > 100 µM (inactive); in the assay with HL-60 it was > 100 µM (inactive); with LOX IMVI it was > 100 µM (inactive); in the assay on Malme-3M, > 100 µM (inactive). For the same compound, the GI50 is 38.1 µM (inactive) with 786-0; 39.4 µM (inactive) in the assay with SF-539; 35 µM (inactive) with MDA-MB-231; 83.4 µM (inactive) with NCI-H522; > 100 µM (inactive) in the assay on SK-MEL-5; > 100 µM (inactive) with RPMI-8226. Besides, the GI50 in the assay on CCRF-CEM is > 100 µM (inactive); in the assay on SF-295, 45.2 µM (inactive); with MDA-MB-435 it was > 100 µM (inactive); with SK-MEL-2, 90.2 µM (inactive); in the assay with IGROV-1, > 100 µM (inactive); with HCT-15, above 100 µM. For the same compound, the GI50 in the assay on UACC-257 and in the assay on OVCAR-3 was > 100 µM (inactive) throughout.

Regarding `CCN(CC)CCC(=O)c1ccc(Sc2ccc(F)cc2)cc1`, the GI50 with HOP-62 is 18.7 µM (inactive); with M14, 20.5 µM (inactive); with MCF7, 14.7 µM (inactive); in the assay on HL-60 it was 20.1 µM (inactive); in the assay on LOX IMVI, 17.4 µM (inactive); with Malme-3M, 16 µM (inactive). Also, the GI50 in the assay on 786-0 was 10.8 µM (inactive); in the assay with SF-539, 17.7 µM (inactive); with MDA-MB-231 it was 16.9 µM (inactive); in the assay on NCI-H522, 16.1 µM (inactive); with SK-MEL-5, 17.1 µM (inactive); in the assay on RPMI-8226, 2.44 µM (inactive). The GI50 was 7.28 µM (inactive) in the assay with CCRF-CEM; 19.3 µM (inactive) in the assay on SF-295; 14.9 µM (inactive) in the assay on MDA-MB-435; 21.1 µM (inactive) in the assay with SK-MEL-2; 18.2 µM (inactive) in the assay with IGROV-1; 17.3 µM in the assay with HCT-15. For the same compound, the GI50 in the assay with UACC-257 was 15.7 µM (inactive); in the assay with OVCAR-3, 18.8 µM (inactive).

Regarding `Clc1ccc(Nc2nnc(CNc3ccc(-c4nnc(Nc5ccc(Cl)cc5)o4)cc3)o2)cc1`, the GI50 in the assay on HOP-62 is 18.9 µM (inactive); with M14 it was 17.1 µM (inactive); in the assay on MCF7, 10.9 µM (inactive); in the assay with HL-60, 2.63 µM (inactive); in the assay on LOX IMVI, 6.95 µM (inactive); in the assay on Malme-3M, 14.7 µM (inactive). Besides, the GI50 is 8 µM (inactive) in the assay with 786-0; 18.6 µM (inactive) in the assay on SF-539; 7.93 µM (inactive) in the assay on MDA-MB-231; 16 µM (inactive) in the assay with NCI-H522; 15.9 µM (inactive) with SK-MEL-5; 9.42 µM (inactive) in the assay on RPMI-8226. For the same compound, the GI50 in the assay on CCRF-CEM is 7.13 µM (inactive); in the assay on SF-295 it was 19.9 µM (inactive); in the assay with MDA-MB-435 it was 12.9 µM (inactive); with SK-MEL-2 it was 18.3 µM (inactive); with IGROV-1, 14.1 µM (inactive); with HCT-15, 14.9 µM. Moreover, the GI50 is 20.3 µM (inactive) with UACC-257 and 11.2 µM (inactive) in the assay on OVCAR-3.

As to `O=C(O)CN(CCNC(=O)OCC1c2ccccc2-c2ccccc21)CCNC(=O)OCC1c2ccccc2-c2ccccc21`, the GI50 with HOP-62 was 21.3 µM (inactive); in the assay with M14, 28.8 µM (inactive); in the assay on MCF7, 18 µM (inactive); in the assay on HL-60, 24.6 µM (inactive); in the assay on LOX IMVI, 18.1 µM (inactive); in the assay on Malme-3M it was 22.3 µM (inactive). The GI50 in the assay on 786-0 is 20.1 µM (inactive); in the assay on SF-539, 25.4 µM (inactive); in the assay on MDA-MB-231, 17.4 µM (inactive); with NCI-H522 it was 17.2 µM (inactive); in the assay on SK-MEL-5 it was 19.6 µM (inactive); in the assay with RPMI-8226, 25.4 µM (inactive). Besides, the GI50 in the assay with CCRF-CEM is 24.5 µM (inactive); in the assay with SF-295 it was 25 µM (inactive); in the assay on MDA-MB-435, 19.1 µM (inactive); in the assay on SK-MEL-2, 22.9 µM (inactive); in the assay with IGROV-1 it was 20.6 µM (inactive); with HCT-15 it was 27.2 µM. Moreover, the results for the GI50 in the assay on UACC-257 and in the assay with OVCAR-3 were 29.2 µM (inactive) and 18.1 µM (inactive), respectively.

As to `CC1(C)CC(Nc2ccc(Nc3ccccc3)cc2)CC(C)(C)N1`, the GI50 with HOP-62 was 50.2 µM (inactive); with M14, 17.7 µM (inactive); in the assay on MCF7 it was 16.7 µM (inactive); with HL-60 it was 6.97 µM (inactive); in the assay on LOX IMVI it was 24.6 µM (inactive); with Malme-3M, 17.9 µM (inactive). Also, the GI50 in the assay on 786-0 was 21.1 µM (inactive); with SF-539, 15.8 µM (inactive); with MDA-MB-231, 14.9 µM (inactive); with NCI-H522, 10.1 µM (inactive); in the assay on SK-MEL-5, 15.2 µM (inactive); in the assay on RPMI-8226 it was 12.7 µM (inactive). For the same compound, the GI50 is 6.41 µM (inactive) in the assay on CCRF-CEM; 68.2 µM (inactive) in the assay on SF-295; 16.8 µM (inactive) in the assay on MDA-MB-435; 23.8 µM (inactive) in the assay with SK-MEL-2; 44.1 µM (inactive) in the assay with IGROV-1; 33.8 µM in the assay with HCT-15. Also, the GI50 was 14.7 µM (inactive) in the assay on UACC-257 and 18.4 µM (inactive) in the assay with OVCAR-3.

`COc1ccc(-c2c(N)n(-c3cc(OC)cc(OC)c3)c(=O)c3cc([N+](=O)[O-])ccc23)cc1`: the GI50 in the assay on HOP-62 was > 100 µM (inactive); in the assay with M14, 32.4 µM (inactive); with MCF7, 29.3 µM (inactive); in the assay with HL-60 it was 2.47 µM (inactive); with LOX IMVI, 24.7 µM (inactive); in the assay with Malme-3M, > 100 µM (inactive). The GI50 in the assay on 786-0 is > 49.5 µM (inactive); in the assay with SF-539, > 78.3 µM (inactive); in the assay with MDA-MB-231, 28.6 µM (inactive); with NCI-H522, 5.19 µM (inactive); in the assay on SK-MEL-5, 18 µM (inactive); with RPMI-8226 it was 2.76 µM (inactive). Also, the GI50 is > 77.8 µM (inactive) with CCRF-CEM; > 100 µM (inactive) in the assay with SF-295; 20.4 µM (inactive) in the assay on MDA-MB-435; > 100 µM (inactive) in the assay on SK-MEL-2; > 52.6 µM (inactive) with IGROV-1; above 54.5 µM in the assay with HCT-15. Also, the GI50 with UACC-257 is > 90.4 µM (inactive); in the assay with OVCAR-3, 24.4 µM (inactive).

For `O=c1c2ccc(Cl)cc2oc2c(CNc3ccc(S(=O)(=O)Nc4ncccn4)cc3)cccc12`, the GI50 was 90.8 µM (inactive) with HOP-62; > 100 µM (inactive) in the assay on M14; > 100 µM (inactive) with MCF7; > 100 µM (inactive) in the assay on HL-60; > 100 µM (inactive) in the assay with LOX IMVI; > 100 µM (inactive) in the assay with Malme-3M. For the same compound, the GI50 in the assay on 786-0 was > 100 µM (inactive); in the assay on SF-539 it was 94.4 µM (inactive); in the assay with MDA-MB-231 it was > 100 µM (inactive); in the assay on NCI-H522, > 100 µM (inactive); in the assay with SK-MEL-5, > 100 µM (inactive); in the assay on RPMI-8226 it was > 100 µM (inactive). For the same compound, the GI50 in the assay with CCRF-CEM was > 100 µM (inactive); with SF-295, > 100 µM (inactive); in the assay on MDA-MB-435, > 100 µM (inactive); with SK-MEL-2 it was > 100 µM (inactive); in the assay with IGROV-1, > 100 µM (inactive); in the assay with HCT-15 it was above 100 µM. The GI50 with UACC-257 and in the assay with OVCAR-3 was > 100 µM (inactive) throughout.

Consider `CC(C)[Si](OC1=C(C(=O)Nc2ccccc2Cl)CCCCC1)(C(C)C)C(C)C`, for which the GI50 was > 100 µM (inactive) in the assay on HOP-62; > 100 µM (inactive) in the assay with M14; > 100 µM (inactive) with MCF7; 1.97 µM (inactive) with HL-60; > 100 µM (inactive) with LOX IMVI; > 100 µM (inactive) in the assay on Malme-3M. Further, the GI50 in the assay with 786-0, in the assay on SF-539, in the assay on MDA-MB-231, with NCI-H522, in the assay on SK-MEL-5 and with RPMI-8226 was > 100 µM (inactive) throughout. The GI50 is 0.462 µM (active) in the assay with CCRF-CEM; > 100 µM (inactive) with SF-295; > 100 µM (inactive) in the assay with MDA-MB-435; > 100 µM (inactive) with SK-MEL-2; > 100 µM (inactive) in the assay with IGROV-1; above 100 µM with HCT-15. Further, the GI50 in the assay with UACC-257 and in the assay on OVCAR-3 was > 100 µM (inactive) throughout.
